The values that follow come from ChEMBL document CHEMBL5113385, “Natural products and synthetic analogues against HIV: A perspective to develop new potential anti-HIV drugs” (Eur J Med Chem, 2022).

Data set [1] can be described thus: Selectivity index, ratio of CC50 for human C8166 cells to EC50 for HIV IIIB infected in human C8166 cells. The data set is classed as toxicity, cell-based. The note with it: C8166 cells (uninfected, and infected with HIV IIIB), read-out: Ratio CC50/EC50.
Data set [2] concerns Human immunodeficiency virus 1. The data set is described as follows: Antiviral activity against wild-type HIV-1 IIIB infected in human C8166 cells assessed as reduction in virus-induced cytopathic effect incubated for 3 days by MTT assay. The note with it: Human immunodeficiency virus 1, IIIB, C8166, 72 h. In kind it is functional, organism-based. Background: Protection from cytopathic effect is a common read-out in antiviral testing.

Data set [3] deals with Human immunodeficiency virus 1. The experiment in a line: Antiviral activity against HIV-1 IIIB infected in human MT2 cells assessed as reduction in viral replication. In kind it is functional, organism-based. Particulars: Human immunodeficiency virus 1, IIIB.
Data set [4] is described as follows: Selectivity index, ratio of CC50 for human MT2 cells to EC50 for HIV-1 IIIB infected in human MT2 cells. The data set is classed as toxicity, cell-based. The note with it: MT2 cells (uninfected, and infected with HIV-1 IIIB), read-out: Ratio CC50/EC50.
Data set [5] relates to Human immunodeficiency virus 1. The data set is described as follows: Antiviral activity against patient-derived wild-type HIV-1 infected in human CEM-T4 cells assessed as inhibition of viral replication preincubated for 24 hrs followed by viral infection measured after 7 days by ELISA. Particulars: Human immunodeficiency virus 1, CEM-T4. In kind it is functional, organism-based.

Data set [6] in a line: Inhibition of HIV-1 gp41 six-helix bundle formation incubated with N36 for 30 mins followed by incubation with C34 peptide for 30 mins by sandwich ELISA. The data set is classed as functional, Human immunodeficiency virus 1.
The subject of the next data set is Influenza A virus. The data set is described as follows: Antiviral activity against Influenza virus A/Puerto Rico/8/34 (H1N1) infected in MDCK cells assessed as reduction in viral titer preincubated for 1 hr followed by viral infection at MOI of 0.01 for 24 hrs and subsequent addition of culture medium and incubated for 48 hrs followed by addition of chicken erythrocytes measured after 40 mins by agglutination method. The data set is classed as functional, organism-based.

Data set [7] can be described thus: Selectivity index, ratio of CC50 for human MT4 cells to EC50 for HIV-1 IIIB infected in human MT4 cells. The data set is classed as toxicity, cell-based. Particulars: MT4 cells (uninfected, and infected with HIV-1 IIIB), read-out: Ratio CC50/EC50.
The subject of data set [8] is Human immunodeficiency virus 1. The data set is described as follows: Antiviral activity against HIV-1 E138K mutant infected in human MT4 cells assessed as reduction in viral replication incubated for 5 days by MTT assay. The data set is classed as functional, organism-based. Particulars: Human immunodeficiency virus 1, E138K mutant, MT4, 120 h. (In general: Formazan colour is commonly taken as a measure of viable cells.)

The next data set relates to MT4. The experiment in a line: Cytotoxicity against human MT4 cells assessed as reduction in cell viability incubated for 5 days by MTT assay. The note with it: MT4, 120 h, time 5 day. In kind it is functional.
Data set [9] concerns Human immunodeficiency virus 1. The data set is described as follows: Antiviral activity against HIV-1 IIIB infected in human MT4 cells assessed as reduction in virus-induced cytopathic effect incubated for 5 days by MTT assay. In kind it is functional, organism-based. Particulars: Human immunodeficiency virus 1, IIIB, MT4, 120 h.
For data set [10], the system named is Human immunodeficiency virus 1. The data set is described as follows: Antiviral activity against HIV-1 NL4-3 infected in human TZM-bl cells assessed as reduction in virus-induced cytopathic effect incubated for 2 days by Bright Glo assay. Particulars: Human immunodeficiency virus 1, NL4-3, TZM-bl, 48 h. In kind it is functional, organism-based.

Values after ≈ are worked out from the molar mass of the structure shown.

As usually defined, the IC50 is the concentration needed to halve the response being measured. Turning to `CCc1c(CC2CCCCC2)nc(SCc2cc(-c3ccc(O)cc3)[nH]n2)[nH]c1=O`, the selectivity ratio in data set [1] stood at 25.5. Also, the IC50 in [2] is 3.8 nM.
As for `Cc1cccc2cc(/C=C3\NC(=O)N(Cc4ccccc4)C3=O)c(Cl)nc12`, in data set [3], the IC50 stood at 148 nM. In addition, in data set [4], the selectivity ratio amounted to 117.
Regarding `C=C(CP(=O)(OCC)OCC)[C@@H]1CC[C@]2(C(=O)O)CC[C@]3(C)[C@H](CC[C@@H]4[C@@]5(C)CC[C@H](OC(=O)CC(C)(C)C(=O)O)C(C)(C)[C@@H]5CC[C@]43C)[C@@H]12`, in data set [5], the concentration for half-maximal inhibition (IC50) was found to be 300 nM.
In [6], `Cc1cc(/C=C2\SC(=S)N(Cc3ccccc3C(F)(F)F)C2=O)c(C)n1-c1ccc(O)c(C(=O)O)c1` gave an IC50 of 23000 nM.
For `Cc1cn([C@H]2C[C@H](n3cc(Cn4nnnc4CC(=O)N(C)C)nn3)[C@@H](CO)O2)c(=O)[nH]c1=O`, the IC50 in the data set with Influenza A virus amounted to 39.6 µg/mL (≈ 86 µM).
Broadly, the CC50 is the concentration giving 50% cytotoxicity. As to `N#Cc1ccc(Nc2nccc(/C(=N\O)c3ccc(-c4ccc(F)cc4)cc3F)n2)cc1`, the selectivity ratio in data set [7] is above 24100. Further, the figures for the IC50 in data set [8] and in [9] were 27 nM and 12100 nM, respectively. Further, in the data set on MT4, the CC50 was above 292000 nM.
With `COc1ccc(N(C)C(=O)[C@H](Cc2cc(F)cc(F)c2)NC(=O)c2cccc(-c3cn(Cc4ccc([N+](=O)[O-])cc4)nn3)c2)cc1`, the IC50 in data set [10] stood at 2130 nM.
